Experimental data as given in article doi:10.1101/2021.10.07.463234v2 (biorxiv, 2021).
Structures can show the parent of a compound that is named as a salt.

biological target: SARS-CoV-2 Mac1 (Severe acute respiratory syndrome coronavirus 2, UniProt P0DTD1); assay: biochemical; conditions: 100 µM; inhibitor

SMILES	%inhibition [%]
CCN(CCO)CCCC(C)Nc1ccnc2cc(Cl)ccc12 (centres unmarked) [Hydroxychloroquine Sulfate]	0

same assay, conditions: read-out: %inhibition

SMILES	inhibition at 100 µM [%]
NNc1nncc2ccccc12 [Hydralazine HCl]	6.58
CC(=O)OCC(=O)[C@@]1(O)CC[C@H]2[C@@H]3CCC4=CC(=O)CC[C@]4(C)[C@H]3[C@@H](O)C[C@@]21C [Hydrocortisone acetate]	0
C[C@]12CCC(=O)C=C1CC[C@@H]1[C@@H]2[C@@H](O)C[C@@]2(C)[C@H]1CC[C@]2(O)C(=O)CO [Hydrocortisone]	5.07
CC[C@H]1CN2CC[C@H]1C[C@@H]2[C@@H](O)c1ccnc2ccc(OC)cc12 [Hydroquinidine]	4.48
Oc1ccc(O)cc1 [Hydroquinone]	7.86
CC(O)c1ccc(S(=O)(=O)NC(=O)NC2CCCCC2)cc1 (centres unmarked) [Hydroxyhexamide]	28
CCCCCC(=O)O[C@]1(C(C)=O)CC[C@H]2[C@@H]3CCC4=CC(=O)CC[C@]4(C)[C@H]3CC[C@@]21C [Hydroxyprogesterone caproate]	8.48
NC(=O)NO [Hydroxyurea]	20.8
OCCOCCN1CCN(C(c2ccccc2)c2ccc(Cl)cc2)CC1 (centres unmarked) [Hydroxyzine 2HCl]	11.4
CN[C@H]1C[C@@H](N)[C@H](O)[C@@H](O[C@@H]2O[C@H](CO)[C@H](O)[C@@H]3OC4(O[C@H]23)O[C@H]([C@@H](N)CO)[C@H](O)[C@H](O)[C@H]4O)[C@@H]1O (some centres unmarked) [Hygromycin B]	0
CCCCCN(C)CCC(O)(P(=O)(O)O)P(=O)(O)O [Ibandronate sodium]	4.37
C=CC(=O)N1CCC[C@@H](n2nc(-c3ccc(Oc4ccccc4)cc3)c3c(N)ncnc32)C1 [Ibrutinib (PCI-32765)]	6.43
CC(C)C(=O)c1c(C(C)C)nn2ccccc12 [Ibudilast]	0
CC(C)Cc1ccc(C(C)C(=O)O)cc1 (centres unmarked) [Ibuprofen]	0
CCCCCCCN(CC)CCCC(O)c1ccc(NS(C)(=O)=O)cc1 (centres unmarked) [Ibutilide Fumarate]	0
C#Cc1cccc(Nc2ncnc3cc4c(cc23)OCCOCCOCCO4)c1 [Icotinib]	15.2

SMILES	inhibition at 100 µM [%]
COc1cc(C(=O)O)ccc1NC(=O)[C@@H]1N[C@@H](CC(C)(C)C)[C@](C#N)(c2ccc(Cl)cc2F)[C@H]1c1cccc(Cl)c1F [Idasanutlin (RG-7388)]	0
COC1=C(OC)C(=O)C(CCCCCCCCCCO)=C(C)C1=O [Idebenone]	7.11
CC[C@H](Nc1ncnc2[nH]cnc12)c1nc2cccc(F)c2c(=O)n1-c1ccccc1 [Idelalisib (CAL-101, GS-1101)]	0
O=c1[nH]c(=O)n([C@H]2C[C@H](O)[C@@H](CO)O2)cc1I [Idoxuridine]	44.1
O=C1C2CC3CC1CC(O)(C3)C2 [Idramantone]	3.83
CC(C(O)c1ccc(O)cc1)N1CCC(Cc2ccccc2)CC1 (centres unmarked) [Ifenprodil Tartrate]	34.6
O=P1(NCCCl)OCCCN1CCCl (centres unmarked) [Ifosfamide]	10.6
CS(=O)(=O)Nc1cc2occ(NC=O)c(=O)c2cc1Oc1ccccc1 [Iguratimod]	4.14
CNC(=O)[C@H](Cc1c[nH]c2ccccc12)NC(=O)[C@@H](CC(=O)NO)CC(C)C [Ilomastat (GM6001, Galardin)]	21
COc1cc(C(C)=O)ccc1OCCCN1CCC(c2noc3cc(F)ccc23)CC1 [Iloperidone]	0
Cc1nccn1CCC(C(N)=O)(c1ccccc1)c1ccccc1 [Imidafenacin]	8.33
CCOC(=O)[C@H](CCc1ccccc1)N[C@@H](C)C(=O)N1C(=O)N(C)C[C@H]1C(=O)O [Imidapril HCl]	0
C[C@@H](O)[C@H]1C(=O)N2C(C(=O)O)=C(SCCNC=N)C[C@H]12 [Imipenem]	9.79
CN(C)CCCN1c2ccccc2CCc2ccccc21 [Imipramine HCl]	2.2
CC(C)Cn1cnc2c(N)nc3ccccc3c21 [Imiquimod]	26.3
